Patent US8030294B2, “Compounds for the treatment of psychiatric or substance abuse disorders” (The McLean Hospital Corporation, priority 2000, dated 2011)

Columns and labels:
[1] = Forced swim test (FST), a rodent model of depression; type: in vivo; conditions: rats, IP; for effect in the forced swim test: citicoline 50-500 mg/kg, molar equivalent cytidine 23.8-238 mg/kg, choline 13.7-136.6 mg/kg
Description: The effects of citicoline were examined in the forced swim test (FST), a rodent model of depression.

[2] = 17-item Hamilton Depression Rating Scale (HDRS) in depressed subjects; type: in vivo, human; conditions: eight weeks, CDP-choline 6/12, fluoxetine 17/41
Procedure: In a second study, twelve depressed subjects (mean age 40) received 500 mg of an oral formulation of CDP-choline twice daily for eight weeks.

[3] = cited from earlier work
[4] = tested on: brain phosphodiesters; test: Phosphorus-31 MR spectroscopy of brain lipid metabolite resonances in healthy subjects; type: in vivo, human; conditions: healthy subjects (mean age 70), 500 mg oral daily, 6 to 12 weeks; p=0.008
Procedure: To assess whether chronic CDP-choline administration leads to detectable changes in lipid metabolite resonances in phosphorus-31 MR spectra, eighteen healthy subjects (mean age: 70) were administered 500 mg of an oral formulation of CDP-choline daily for a six week period. From weeks 6 to 12, half of the subjects continued to receive CDP-choline and half received placebo in a double-blind fashion. […] CDP-choline administration, therefore, improves measures of verbal fluency and spatial memory in healthy adults and results in increased brain phospholipid synthesis in older adults, particularly during chronic administration.

[5] = in vivo; cited from earlier work
[6] = cited from earlier work; remark: listed apart in the source
[7] = in vivo; cited from earlier work; remark: listed apart in the source
[8] = Infrared motion analysis of activity during CPT in children with ADHD; type: in vivo, human; conditions: ADHD boys (n=11) vs placebo; P<0.05
Procedure: (§1) A new fMRI procedure (T2 relaxometry or “T2-RT”) was developed to indirectly assess blood volume in the striatum (caudate and putamen) of boys 6-12 years of age under steady-state conditions. Six healthy control boys (10.2±1.5 yr) and eleven boys diagnosed with ADHD (9.3±1.6 yr) served as subjects in the study to examine fMRI differences between unmedicated healthy controls and ADHD children on either placebo or the highest dose of methylphenidate. […] Activity and attention were evaluated in unmedicated healthy controls using the same procedure as children with ADHD, and fMRI followed within the same time frame.
(§2) Highly accurate laboratory-based measures of activity and attention were obtained by having the children perform a computerized vigilance test while an infrared motion analysis system captured and recorded movements (see Methods). […]
(§3) Assessment of Activity and Attention. […] In brief, children sat in front of a computer and were evaluated using a simple GO/NO-GO CPT in which the subject responds to visual presentation of a target and withholds response to a non-target stimuli that appear in the center of the screen at a fixed 2 second […] interval (Greenberg et al., Psychopharmacol. Bull. 23: 279-282,1987). […]

[9] = tested on: regional blood volume in putamen, caudate and thalamus; test: T2 relaxometry (T2-RT) fMRI in children with ADHD; type: in vivo, human; conditions: ADHD boys, vs placebo; P>0.7
Description: A new fMRI procedure (T2 relaxometry or “T2-RT”) was developed to indirectly assess blood volume in the striatum (caudate and putamen) of boys 6-12 years of age under steady-state conditions. […] Children with ADHD were included if they met criteria for ADHD on structured diagnostic interview, and had at least 6 of 9 symptoms of inattention or hyperactivity-impulsivity. Children with ADHD took part in a triple blind (parent, child, rater), randomized, placebo-controlled study of effects of methylphenidate (0, 0.5, 0.8, 1.5 mg/kg in divided dose) on activity, attention, and fMRI. Children with ADHD were treated continuously for one week with placebo or a specific dose of methylphenidate and at the end of the week were tested for drug efficacy using objective measures of attention and activity and fMRI (See Methods) within 1-3 hours of their afternoon dose. The time between dose and testing was held constant for each subject throughout the four treatment conditions. Activity and attention were evaluated in unmedicated healthy controls using the same procedure as children with ADHD, and fMRI followed within the same time frame.
T2 relaxometry, a novel FMRI procedure, was used to derive steady state blood flow measures and to test for enduring medication effects. […]

[10] = Continuous performance task (CPT), a measure of attention, in children with ADHD; type: in vivo, human; conditions: ADHD boys (n=11), one week
Procedure: as §1, §2, §3

## C[N+](C)(C)CCOP(=O)(O)OP(=O)([O-])OC[C@H]1O[C@@H](n2ccc(N)nc2=O)[C@H](O)[C@@H]1O [CDP-choline, cytidine 5′-diphosphocholine]
[1]; high doses
  effect in the forced swim test at high doses: small pro-depressant effects
[1]
  effect in the forced swim test: did not have antidepressant effects
[2]
  complete responses (share of subjects): 50%
[3]; in vivo
  reported cases of overdoses: no reported cases of overdoses
[3]; preclinical studies, salivation, lacrimation, urination, defecation, vomiting
  symptoms on ingestion of large amounts: common cholinergic symptoms
[4]
  brain phosphodiesters: significant increase
[5]
  tolerability in mammals: well tolerated
[6]; orally or intravenously
  conversion into the two major circulating metabolites, choline and cytidine: rapidly converted
[6]; share of dose
  excretion via lung: 12.9%
  excretion via urine: 2.4%

## CN(CC(=O)O)C(=N)N [Creatine, creatine]
[7]
  tolerability in humans: well tolerated at relatively high doses

## Nc1ccn([C@@H]2O[C@H](CO)[C@@H](O)[C@H]2O)c(=O)n1 [cytidine]
[1]
  effect in the forced swim test: significant antidepressant effects

## CNCCC(Oc1ccc(C(F)(F)F)cc1)c1ccccc1 (centres unmarked) [fluoxetine]
[2]
  complete responses (share of subjects): 41%

## COC(=O)C(c1ccccc1)C1CCCCN1 (centres unmarked) [methylphenidate]
[8]
  complexity of the movement pattern: increasing the complexity of the movement pattern
[9]
  T2-RT in thalamus: not affected
[10]; highest dose vs placebo, P<0.05
  CPT performance accuracy: enhancing performance accuracy
[10]; reduced from 242 on placebo, P<0.005
  response variability (S.D.) of CPT response latency: 149 ms

## CC(=O)OC[C@H]1O[C@@H](n2ccc(=O)[nH]c2=O)[C@H](OC(C)=O)[C@@H]1OC(C)=O [triacetyl uridine]
[5]
  tolerability in mammals: well tolerated

## O=c1ccn([C@@H]2O[C@H](CO)[C@@H](O)[C@H]2O)c(=O)[nH]1 [uridine]
[5]
  tolerability in mammals: well tolerated
[7]
  tolerability in humans: well tolerated
